Measurements as given in paper PMC8472512, “Synthesis and Biochemical Evaluation of Baicalein Prodrugs” (Pharmaceutics, 2021).
Blank lines part the entries; values can stand above or below the compound they belong to.

What was measured:
[1] = in vitro; conditions: PAMPA
Experimental: The assay was conducted as reported previously [15]. The samples were analyzed as described below in mouse plasma stability assay.

[2] = logD7.4 by shake-flask method; type: physicochemical; conditions: 1-octanol / 0.1 M potassium phosphate buffer, 0.1 M phosphate buffer (pH 7.4), duplicate
Experimental: The assay was conducted as reported previously. Briefly, 100 µM test solutions were prepared by diluting 10 mM stock solutions of the test compounds (baicalein and compounds 1–7) in 0.1 M potassium phosphate buffer (pH 7.4) saturated with 1-octanol. Standard solutions were prepared by diluting each test solution with the same volume of DMSO in HPLC vials. Partition solutions were prepared by mixing each test solution and 1-octanol saturated with 0.1 M potassium phosphate buffer (pH 7.4) at three different volume ratios, namely 1:0.02, 1:0.2 and 1:2, in HPLC vials. The partition solutions were then vortexed for 1 h at 1500 rpm at rt. The standard solutions and the aqueous phase (bottom layer) of each partition solution were analyzed directly from the HPLC vials as described above in Chemical stability assay. The logD7.4 values were calculated by the following equation: logD7.4=log(2×As/Ap−1)·Vt/Vo where As and Ap are, respectively, the peak areas of the standard and the aqueous phase of the partition solutions and Vt and Vo the volumes of test solution and 1-octanol of the partition solutions.

[3] = Stability in mouse plasma; type: in vitro ADME
Experimental: Working solutions of the test compounds (baicalein, enalapril, and compounds 1–7) prepared in 50 vol% aqueous MeOH at 40 μM were diluted in mouse plasma in triplicate to a final concentration of 1 μM. The mixtures were then incubated at 37 °C in a shaking water bath. A 50 μL aliquot was removed at 0 and 60 min from each incubation mixture followed by immediate mixing with 150 μL ice-cold MeOH containing 1 μg/mL glipizide as the internal standard (IS). The resulting mixtures, following a 5-min vortexing and sonication, were then centrifuged at 3000 rpm for 30 min at 4 °C. The supernatant was analyzed by Agilent 6460 QQQ LC−MS/MS system in a positive multiple reaction monitoring (MRM) mode. Gradient elution was conducted on an Agilent Eclipse Plus C18 column (100 × 2.1 mm, 3.5 µm) at 40 °C with 0.1 vol% formic acid in deionized water and 0.1 vol% formic acid in acetonitrile running at 0.45 mL/min. MRM transitions of the analytes were set as follows: baicalein: m/z 271→123, enalapril: m/z 377→234, 1: m/z 428→271, 2: m/z 414→271, 3: m/z 428→271, 4: m/z 416→271, 5: m/z 462→271, 6: m/z 386→271, 7: m/z 372→271, and glipizide: m/z 446→321. The analytical data were analyzed using Agilent MassHunter Quantitative Analysis Software (version B.05.00). Peak area ratios of the analytes vs. IS on the MRM chromatograms were used to calculate % remaining at 60 min.

[4] = Chemical stability in physiologically-relevant solutions; type: physicochemical; conditions: 37 °C; for remaining at 4 h, 10 μM: at 4 h vs time 0
Experimental: Stock solutions of the test compounds (baicalein, compounds 1–7) prepared in MeOH at 10 mM were diluted in 0.1 N HCl and 0.1 M potassium phosphate buffer (pH 6.5 and 7.4) in triplicate to a final concentration of 10 μM. The mixtures were then incubated at 37 °C in a shaking water bath. Samples taken at 0, 1, 2, 3 and 4 h were analyzed by Thermo UltiMate 3000 series HPLC system. Chromatographic separation was performed on an Agilent Eclipse Plus C18 column (100 × 4.6 mm, 3.5 µm) kept at 40 °C with isocratic elution at a flow rate of 0.6 mL/min using a mixture of 0.1 vol% TFA in deionized water and acetonitrile as the mobile phase. The detection wavelengths were 277 and 270 nm for baicalein and compounds 1–7, respectively. Peak areas of the analytes on the UV chromatograms were used to calculate % remaining values at each time points.
The stability of baicalein and of the synthesized carbamate prodrugs (1–7) was determined in solutions mimicking gastric (0.1 N HCl, pH ~ 1), intestinal (pH 6.5 phosphate buffer), and physiological (pH 7.4 phosphate buffer) conditions. […]. […] […]. The degradation of the carbamate prodrugs was accompanied by the formation of baicalein under all conditions in this study (data not shown). Although the exact reason for this pH-dependent stability remains unknown, it is plausible that the side chains of amino acids somehow affect the hydrolysis of the carbamate bond of the prodrugs.

[5] = Metabolic stability in mouse liver S9 fractions; type: in vitro ADME; conditions: presence of the cofactor mixture (NADPH, UDPGA, PAPS, GSH), 37 °C, 60 min
Experimental: Working solutions of the test compounds (baicalein, 7-EC, and compounds 1–7) prepared in 50 vol% aqueous MeOH at 120 μM were added in triplicate to a 200 mM tris buffer (pH 7.4) containing mouse liver S9 fractions (1 mg protein/mL), alamethicin (25 μg/mL) and MgCl2 (2 mM). The final concentration of test compound was 3 μM. This mixture was pre-incubated at 37 °C in a shaking water bath for 5 min followed by addition of a cofactor mixture to following final concentrations: 1 mM NADPH, 0.5 mM UDPGA, 0.1 mM PAPS and 2.5 mM GSH. A 50 μL aliquot was taken at 0, 15, 30 and 60 min from each incubation mixture. These samples were then treated in the same way as described above in Mouse plasma stability assay. The supernatant was analyzed by Agilent 6530 Q−TOF LC−MS/MS system in a positive auto MS/MS scan mode. The liquid chromatography was conducted in the same condition as described above in mouse plasma stability assay. The analytical data were analyzed using Agilent MassHunter Quantitative Analysis Software (version B.05.00). MS chromatograms were extracted using calculated exact masses ([M+H]^+) for the analytes. Peak area ratios of the analytes vs. IS on the extracted MS chromatograms were used to calculate % remaining values at each time points.

[6] = Mouse pharmacokinetics; type: in vivo, male ICR mice; conditions: for AUC(0-t) / Cmax / Tmax / AUC(0-inf) / half-life: male, ICR, mouse
Experimental: Pharmacokinetic studies were conducted with male ICR mice (8 weeks old; 30–35 g body wt.) purchased from Koatech Company (Pyeongtaek, Korea), as reported previously. Intravenous dosing solutions were prepared in EtOH/20% aqueous HPβCD (10/90 vol%) at 2 and 3 mg/mL for baicalein and compound 2, respectively. Oral dosing solutions were prepared in EtOH/tween 80/20% aqueous HPβCD (10/10/80 vol%) at 1 and 1.5 mg/mL for baicalein and compound 2, respectively. Plasma sample analysis was performed as described above in mouse plasma stability assay.

[7] = iv, plasma analyte after single i.v. dose of baicalein 10 mg/kg, mice
[8] = iv, plasma analyte after single i.v. dose of compound 2 15 mg/kg, mice
[9] = po, plasma analyte after single p.o. dose of compound 2 50 mg/kg, mice

SMILES: O=c1cc(-c2ccccc2)oc2cc(O)c(O)c(O)c12 [Baicalein, 5,6,7-trihydroxy-2-phenyl-4H-1-benzopyran-4-one]
- Papp [1]: 5.75 ± 0.14 ×10⁻⁶ cm/s
- logD [2]: 2.14
- remaining at 1 h, 1 μM ([3]; mouse, plasma): > 85%
- half-life at 10 μM ([4]; 0.1 M potassium phosphate buffer, pH 6.5 buffer (0.1 M potassium phosphate)): > 4 h
- remaining at 4 h, 10 μM ([4]; 0.1 M potassium phosphate buffer, pH 6.5 buffer): 101 ± 2.8%
- half-life at 10 μM ([4]; 0.1 M potassium phosphate buffer, pH 7.4 buffer (0.1 M potassium phosphate)): > 4 h
- remaining at 4 h, 10 μM ([4]; 0.1 M potassium phosphate buffer, pH 7.4 buffer): 65.8 ± 2.6%
- half-life at 10 μM ([4]; pH 1, 0.1 N HCl, 10 μM): > 4 h
- remaining at 4 h, 10 μM ([4]; pH 1, 0.1 N HCl): 104 ± 4.1%
- metabolism in mouse liver S9 fractions [5]: rapidly metabolized
- time plasma analyte was above the quantitation limit ([6]; after i.v. dose of compound 2 (approximately equimolar to 10 mg/kg baicalein), mice): 8 h
- time plasma analyte was above the quantitation limit ([6]; after p.o. administration of compound 2, mice): 8 h
- time plasma analyte was above the quantitation limit ([6]; after single i.v. dose of 10 mg/kg baicalein, mice): up to 15 min
- time plasma analyte was above the quantitation limit ([6]; after single p.o. dose of 10 mg/kg baicalein, mice, 24 h time course): below the quantitation limit
- AUC(0-t) [6, 7]: 1090 ± 640 ng·h/mL
- Cmax [6, 7]: 1470 ± 330 ng/mL
- Tmax [6, 7]: 0.1 h
- AUC(0-inf) [6, 8]: 4390 ± 1570 ng·h/mL
- AUC(0-t) [6, 8]: 4240 ± 1430 ng·h/mL
- Cmax [6, 8]: 4190 ± 450 ng/mL
- Tmax [6, 8]: 0.1 h
- half-life [6, 8]: 1.5 ± 0.3 h
- AUC(0-inf) [6, 9]: 540 ± 150 ng·h/mL
- AUC(0-t) [6, 9]: 450 ± 140 ng·h/mL
- Cmax [6, 9]: 230 ± 90 ng/mL
- Tmax [6, 9]: 0.3 ± 0.09 h
- half-life [6, 9]: 2.6 ± 1.5 h

- % remaining in mouse plasma ([3]; 60 min incubation at 37 °C, 1 μM): degraded
SMILES: CCOC(=O)[C@H](CCc1ccccc1)N[C@@H](C)C(=O)N1CCC[C@H]1C(=O)O [Enalapril, enalapril]
